Measured values: patent US20120095036A1, “NOVEL SUBSTITUTED INDAZOLE AND AZA-INDAZOLE DERIVATIVES AS GAMMA SECRETASE MODULATORS” (priority 2009, published 2012)

What was measured:
[1] = test system: Aβ42; assay: Method 1: Aβ42 sandwich ELISA on media of SKNBE2 cells carrying APP 695 wild type (γ-secretase-modulating activity); type: cell-based; details: Homo sapiens, SKNBE2 cells APP 695 wild type, 18 hours
Procedure: (§1) Screening was carried out using SKNBE2 cells carrying the APP 695—wild type, grown in Dulbecco's Modified Eagle's Medium/Nutrient mixture F-12 (DMEM/NUT-mix F-12) (HAM) provided by Gibco (cat no. 31330-38) containing 5% Serum/Fe supplemented with 1% non-essential amino acids. Cells were grown to near confluency.
(§2) The screening was performed using the assay as described in Citron et al (1997) Nature Medicine 3: 67. Briefly, cells were plated in a 96-well plate at about 10^5 cells/ml one day prior to addition of compounds. Compounds were added to the cells in Ultraculture (Lonza, BE12-725F) supplemented with 1% glutamine (Invitrogen, 25030-024) for 18 hours. The media were assayed by two sandwich ELISAs, for Aβ42 and Aβtotal. Toxicity of the compounds was assayed by WST-1 cell proliferation reagent (Roche, 1 644 807) according to the manufacturer's protocol.
To quantify the amount of Aβ42 in the cell supernatant, commercially available Enzyme-Linked-Immunosorbent-Assay (ELISA) kits were used (Innotest® β-Amyloid(1-42), Innogenetics N.V., Ghent, Belgium). The Aβ42 ELISA was performed essentially according to the manufacturer's protocol. Briefly, the standards (dilutions of synthetic A131-42) were prepared in polypropylene Eppendorf with final concentrations of 8000 down to […] (½ dilution step). Samples, standards and blanks (100 μl) were added to the anti-Aβ42-coated plate supplied with the kit (the capture antibody selectively recognizes the C-terminal end of the antigen). The plate was allowed to incubate 3 h at 25° C. in order to allow formation of the antibody-amyloid complex. Following this incubation and subsequent wash steps a selective anti-A13-antibody conjugate (biotinylated 3D6) was added and incubated for a minimum of 1 hour in order to allow formation of the antibody-Amyloid-antibody-complex. After incubation and appropriate wash steps, a Streptavidine-Peroxidase-Conjugate was added, followed 30 minutes later by an addition of 3,3′,5,5′-tetramethylbenzidine (TMB)/peroxide mixture, resulting in the conversion of the substrate into a coloured product. This reaction was stopped by the addition of sulfuric acid (0.9 N) and the colour intensity was measured by means of photometry with an ELISA-reader with a 450 nm filter.
(§3) To obtain the values reported in Table 3a, the sigmoidal dose response curves were analysed by computerised curve-fitting, with percent of inhibition plotted against compound concentration. A 4-parameter equation (model 205) in XLfit was used to determine the IC50. The top and the bottom of the curve were fixed to 100 and 0, respectively, and the hill slope was fixed to 1. The IC50 represents the concentration of a compound that is required for inhibiting a biological effect by 50% (Here, it is the concentration where Aβ peptide level is reduced by 50%).

[2] = test system: Aβtotal; assay: Method 1: Aβtotal sandwich ELISA on media of SKNBE2 cells carrying APP 695 wild type; type: cell-based; details: Homo sapiens, SKNBE2 cells APP 695 wild type, 18 hours
Procedure: as §1, §2
To quantify the amount of Aβtotal in the cell supernatant, samples and standards were added to a 6E10-coated plate. The plate was allowed to incubate overnight at 4° C. in order to allow formation of the antibody-amyloid complex. Following this incubation and subsequent wash steps a selective anti-AB-antibody conjugate (biotinylated 4G8) was added and incubated for a minimum of 1 hour in order to allow formation of the antibody-Amyloid-antibody-complex. After incubation and appropriate wash steps, a Streptavidine-Peroxidase-Conjugate was added, followed 30 minutes later by an addition of Quanta Blu fluorogenic peroxidase substrate according to the manufacturer's instructions (Pierce Corp., Rockford, Il).
as §3

[3] = test system: Aβ42; assay: Method 2: Aβ42 Alphalisa on supernatant of SKNBE2 cells carrying APP 695 wild type; type: cell-based; details: Homo sapiens, SKNBE2 cells APP 695 wild type, overnight
Procedure: as §1, with “Invitrogen” for “Gibco”, “10371-029)” for “31330-38)”, “acids, 1-glutamine 2 mM, Hepes 15 mM, penicillin 50 U/ml (units/ml) en streptomycin 50 μg/ml.” for “acids.”
(§4) The screening was performed using a modification of the assay as described in Citron et al (1997) Nature Medicine 3: 67. Briefly, cells were plated in a 384-well plate at 10^4 cells/well in Ultraculture (Lonza, BE12-725F) supplemented with 1% glutamine (Invitrogen, 25030-024), 1% non-essential amino acid (NEAA), penicillin 50 U/ml en streptomycin 50 μg/ml in the presence of test compound at different test concentrations. The cell/compound mixture was incubated overnight at 37° C., 5% CO2, The next day the media were assayed by two sandwich immuno-assays, for Aβ42 and Aβtotal.
(§5) Aβtotal and Aβ42 concentrations were quantified in the cell supernatant using the Aphalisa technology (Perkin Elmer). Alphalisa is a sandwich assay using biotinylated antibody attached to streptavidin coated donorbeads and antibody conjugated to acceptor beads. In the presence of antigen, the beads come into close proximity. The excitation of the donor beads provokes the release of singlet oxygen molecules that trigger a cascade of energy transfer in the acceptor beads, resulting in light emission. To quantify the amount of Aβ42 in the cell supernatant, monoclonal antibody specific to the C-terminus of Aβ42 (JRF/cAβ42/26) was coupled to the receptor beads and biotinylated antibody specific to the N-terminus of AB (JRF/AβN/25) was used to react with the donor beads. To quantify the amount of Aβtotal in the cell supernatant, monoclonal antibody specific to the N-terminus of AB (JRF/AβN/25) was coupled to the receptor beads and biotinylated antibody specific to the mid region of Aβ (biotinylated 4G8) was used to react with the donor beads.
(§6) To obtain the values reported in Table 3b, the data were calculated as percentage of the maximum amount of amyloid Beta 42 measured in the absence of the test compound. The sigmoidal dose response curves were analyzed using non-linear regression analysis with percentage of the control plotted against the log concentration of the compound. A 4-parameter equation was used to determine the IC50.

[4] = test system: Aβtotal; assay: Method 2: Aβtotal Alphalisa on supernatant of SKNBE2 cells carrying APP 695 wild type; type: cell-based; details: Homo sapiens, SKNBE2 cells APP 695 wild type, overnight
Procedure: as §1, with “Invitrogen” for “Gibco”, “10371-029)” for “31330-38)”, “acids, 1-glutamine 2 mM, Hepes 15 mM, penicillin 50 U/ml (units/ml) en streptomycin 50 μg/ml.” for “acids.”
as §4, §5, §6

IC50 [1] [nM] | IC50 [2] [nM] | IC50 [3] [nM] | IC50 [4] [nM] | melting point [°C] | Structure (SMILES)
513 | > 3000 | 363 | > 10000 | 153.4 | Cc1ncc(-c2ccc(Nc3cccc4cn(CC(F)(F)F)nc34)cn2)o1 [Compound 44, N-[6-(2-methyl-5-oxazolyl)-3-pyridinyl]-2-(2,2,2-trifluoroethyl)-2H-indazol-7-amine]
2130 | > 3000 | > 3000 | > 3000 | 237.9 | Cc1ncc(-c2ccc(Nc3cccc4c(C#N)n(-c5ccc(F)cc5)nc34)cc2)o1 [Compound 32, 2-(4-fluorophenyl)-7-[[4-(2-methyl-5-oxazolyl)phenyl]amino]-2H-indazole-3-carbonitrile]
359 |  | 479 | > 10000 | 175 | Cc1ncc(-c2ccc(Nc3cccc4cn(-c5ccc6c(c5)OCO6)nc34)cc2)o1 [Compound 34, 2-(1,3-benzodioxol-5-yl)-N-[4-(2-methyl-5-oxazolyl)phenyl]-2H-indazol-7-amine]
180 | > 10000 | 177 | > 10000 | 137 | Cc1ncc(-c2ccc(Nc3cccc4c(CN)n(-c5ccc(F)cc5)nc34)cc2)o1 [Compound 8, 2-(4-fluorophenyl)-7-[[4-(2-methyl-5-oxazolyl)phenyl]amino]-2H-indazole-3-methanamine]
382 | > 3000 | 166 | > 10000 | 185 | COc1cccc(-n2nc3c(Nc4ccc(-c5cnc(C)o5)cc4)nccc3c2C)c1 [Compound 35, 2-(3-methoxyphenyl)-3-methyl-N-[4-(2-methyl-5-oxazolyl)phenyl]-2H-pyrazolo[3,4-c]pyridin-7-amine]
186 | > 3000 | 32 | 5500 | 164.4 | COc1cc(Nc2cccc3c(C)n(-c4ccc(F)cc4)nc23)ccc1-c1cnc(C)o1 [Compound 40, 2-(4-fluorophenyl)-N-[3-methoxy-4-(2-methyl-5-oxazolyl)phenyl]-3-methyl-2H-indazol-7-amine]
> 3000 | > 3000 | > 3000 | > 3000 | 135.6 | Cc1ncn(-c2ccc(Nc3cccc4c(C)n(CCCC(F)(F)F)nc34)cc2F)n1 [Compound 22, N-[3-fluoro-4-(3-methyl-1H-1,2,4-triazol-1-yl)phenyl]-3-methyl-2-(4,4,4-trifluorobutyl)-2H-indazol-7-amine]
1040 |  | 724 | > 10000 | 146.9 | Cc1ncn(-c2ccc(Nc3cccc4c(C)n(-c5ccc(F)cc5F)nc34)cc2F)n1 [Compound 23, 2-(2,4-difluorophenyl)-N-[3-fluoro-4-(3-methyl-1H-1,2,4-triazol-1-yl)phenyl]-3-methyl-2H-indazol-7-amine]
229 | > 3000 | 55 | > 10000 | 239.1 | COc1cccc(-n2nc3c(Nc4ccc(-c5cnn(C)c5)c(F)c4)cccc3c2C)c1 [Compound 7, N-[3-fluoro-4-(1-methyl-1H-pyrazol-4-yl)phenyl]-2-(3-methoxyphenyl)-3-methyl-2H-indazol-7-amine]
 |  | > 3000 | > 3000 | 213.8 | COc1cc(Nc2nc(C)cc3cn(CC(F)(F)F)nc23)ccc1-c1cnc(C)o1 [Compound 41, N-[3-methoxy-4-(2-methyl-5-oxazolyl)phenyl]-5-methyl-2-(2,2,2-trifluoroethyl)-2H-pyrazolo[3,4-c]pyridin-7-amine]
